Test results: patent US20230250060A1 (IFM Due, Inc., priority 2022, published 2023)
pEC50: −log10 of the molar value.

These compounds were tested against T1, STING (Homo sapiens, UniProt Q86WV6, G230A/H232R/R293Q/R71H) (assay: STING reporter assay (luciferase) in THP1-Dual KO-IFNAR2 cells stimulated with 2′3′cGAMP). Conditions: 2′3′cGAMP 15 μM final, 24 h, luciferase reporter activity, read-out: Pharmaron, THP1_IFNAR2 STING 24 h Luci Normalized: GeoMean EC50.
T1 construct: host or cells: THP1-Dual KO-IFNAR2 cells
Type: cell-based
How it was run: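 THP1-Dual KO-IFNAR2 cells (2×10E6 cells/mL) exposed to compounds at 0.0017-100 μM final and stimulated with 2′3′cGAMP (15 μM final) delivered via Lipofectamine 2000. After 24 h at 37° C., secreted luciferase in supernatant read with QUANTI-Luc Plus; EC50 derived from luminescence.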

T1 sequence (Q86WV6 whole entry R71H/G230A/H232R/R293Q): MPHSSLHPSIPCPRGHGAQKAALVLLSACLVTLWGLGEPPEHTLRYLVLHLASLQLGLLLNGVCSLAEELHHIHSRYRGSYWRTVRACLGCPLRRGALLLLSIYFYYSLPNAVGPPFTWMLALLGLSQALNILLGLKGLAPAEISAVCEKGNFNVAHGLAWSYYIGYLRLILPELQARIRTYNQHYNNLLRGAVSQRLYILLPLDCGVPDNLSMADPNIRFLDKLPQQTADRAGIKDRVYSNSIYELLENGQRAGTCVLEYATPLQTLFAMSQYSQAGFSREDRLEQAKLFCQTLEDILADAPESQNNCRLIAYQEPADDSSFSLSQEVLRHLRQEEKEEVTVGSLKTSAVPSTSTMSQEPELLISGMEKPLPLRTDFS

pEC50 | SMILES
6.00 to 6.70 | O=C(Nc1c[nH]c2ccc(OCc3ccc(C(F)(F)F)cc3)cc12)c1ccn[nH]1 [Compound 137, N-(5-((4-(trifluoromethyl)benzyl)oxy)-1H-indol-3-yl)-1H-pyrazole-5-carboxamide]
6.00 to 6.70 | O=C(Nc1c[nH]c2ccc(OCCc3ccc(C(F)(F)F)cc3)cc12)c1cccnc1 [Compound 123, N-(5-(4-(trifluoromethyl)phenethoxy)-1H-indol-3-yl)nicotinamide]

SMILES | pEC50
O=C(Nc1c[nH]c2ccc(O[C@H]3C[C@@H](c4ccc(C(F)(F)F)cc4)C3)cc12)C12CC(F)(C1)C2 [Compound 132, 3-fluoro-N-(5-((1s,3s)-3-(4-(trifluoromethyl)phenyl)cyclobutoxy)-1H-indol-3-yl)bicyclo[1.1.1]pentane-1-carboxamide] | 6.00 to 6.70
